Results: patent US9987237B2, “Methods and devices for using isoperillyl alcohol” (NEONC TECHNOLOGIES INC., priority 2010, dated 2018)

Key:
[1] = tested on: glucose-regulatory protein 78 (GRP-78) and the apoptosis marker CHOP; assay: Western blot for ER stress markers in U251 cells; type: cell-based, human; conditions: U251 TMZ-sensitive and TMZ-resistant (U251-TR1, U251-TR2) cells, 1.5 mM, 18 hours
Protocol: U251 TMZ-sensitive and TMZ-resistant (U251-TR1, U251-TR2) cells were treated with Sigma POH (1.5 mM) or GLP POH (1.5 mM) for 18 hours, then Western blot was performed.

Kras = assay: Western blot for Kras expression in U251 glioma cells; type: cell-based, human; conditions: 500 μM, 24 hours
Protocol: U251 glioma cells were treated with 500 μM Sigma POH, GLP POH or iso-POH (isoPOH65, isoPOH79) for 24 hours, then Western blot was performed.

[2] = tested on: U87 temozolomide-resistant cells; assay: MTT cytotoxicity assay, U87 temozolomide-resistant cells; type: cell-based, human; conditions: 48 hours, FIG. 7B
Description: (§1) J. of Immunological Methods 65: 55 63, 1983. The cytoxicity of the present compound may be studied by colony formation assay. […] Invasion inhibition may be studied by Boyden chambers. In this assay a layer of reconstituted basement membrane. […] In vitro cytotoxicity of iso-POH in temozolomide-sensitive or temozolomide-resistant cells were also studied. […] Similarly.

LN229 human glioma cells = assay: MTT cytotoxicity assay, LN229 glioma cells; type: cell-based
Description: (§2) J. of Immunological Methods 65: 55 63, 1983. The cytoxicity of the present compound may be studied by colony formation assay. […] Invasion inhibition may be studied by Boyden chambers. In this assay a layer of reconstituted basement membrane. […] Sigma POH is the POH purchased from Sigma Chemicals having a purity of about 96%. […] KWH0744 is the crude POH purchased from Wako having a purity of about 89.5%. […] In vitro cytotoxicity of iso-POH in temozolomide-sensitive or temozolomide-resistant cells were also studied. […] Similarly.

[3] = tested on: A172 temozolomide-resistant cells; assay: MTT cytotoxicity assay, A172 temozolomide-resistant cells; type: cell-based, human; conditions: 48 hours, FIG. 4B
Description: as §1

[4] = tested on: U251 temozolomide-resistant cells; assay: MTT cytotoxicity assay, U251 temozolomide-resistant cells; type: cell-based, human; conditions: 0 mM-3 mM
Description: as §1

[5] = tested on: LN229 temozolomide-resistant cells; assay: MTT cytotoxicity assay, LN229 temozolomide-resistant cells; type: cell-based, human; conditions: 48 hours, FIG. 6B
Description: as §1

U251 human glioma cells = assay: MTT cytotoxicity assay, U251 glioma cells; type: cell-based
Description: as §2

U87 human glioma cells = assay: MTT cytotoxicity assay, U87 glioma cells; type: cell-based; conditions: U87 temozolomide sensitive, 48 hours, FIG. 7A
Description: as §1

A172 human glioma cells = assay: MTT cytotoxicity assay, A172 glioma cells; type: cell-based
Description: as §2

C=C(C)[C@@H]1CC=C(CO)CC1 [Sigma POH, perillyl alcohol]
endoplasmic reticulum (ER) stress [1]: increased endoplasmic reticulum (ER) stress
expression of glucose-regulatory protein 78 (GRP-78) [1]: increased expression
expression of the apoptosis marker CHOP [1]: increased expression
Kras expression (Kras): decreased Kras expression

CC(C)=C1CC=C(CO)CC1 [iso-POH, (4-isopropylidene cyclohex-1-enyl)methanol]
cytotoxic response (MTT) [2]: greatest response
cytotoxicity (MTT) (LN229 human glioma cells; LN229 human glioma cells, FIG. 1, versus POH of different purity): much better cytotoxicity than POH with different purity
cytotoxic response (MTT) (LN229 human glioma cells; LN229 temozolomide sensitive, 48 hours, FIG. 6A): same response
cytotoxic response (MTT) [3]: response pattern was also seen
endoplasmic reticulum (ER) stress [1]: increased ER stress
cytotoxicity (MTT) ([4]; U251-TR1, 24 hours, FIG. 8C): greater cytotoxicity
cytotoxicity (MTT) ([4]; U251-TR2, 24 hours, FIG. 8B): greater cytotoxicity
Kras expression (Kras): decreased Kras expression
cytotoxic response (MTT) [5]: same response
cytotoxicity (MTT) (U251 human glioma cells; TMZ sensitive U251, 24 hours, 0 mM-3 mM, FIG. 8A): greater cytotoxicity
cytotoxic response (MTT) (U251 human glioma cells; U251 temozolomide-sensitive, 48 hours, FIG. 5A): greatest response
cytotoxicity (MTT) (U251 human glioma cells; U1251 human glioma cells, FIG. 2, versus POH of different purity): much better cytotoxicity than POH with different purity
cytotoxic response (MTT) (U87 human glioma cells): greatest response
cytotoxicity (MTT) (A172 human glioma cells; A172 human glioma cells, FIG. 3, versus POH of different purity): much better cytotoxicity than POH with different purity
cytotoxic response (MTT) (A172 human glioma cells; A172 temozolomide-sensitive, 48 hours, FIG. 4A, compared to GLP POH and Sigma POH): greatest cytotoxic response
